Test results published in EP4108244A1, “SS-LACTAM ANTIBIOTIC WITH SIGNIFICANT ACTIVITY AGAINST CANCER E.G. COLON MALIGNANCIES” (priority 2021, dated 2022).
“And” between values parts separate entries of the source, which are not always exact repeats. Identical values can stand only once. Marks after values point to notes of the source that are not given here.

Assays:
HCT-116 cells [1] = assay: Antibiotics' uptake by the cells, LC-MS/MS; settings: for Concentration of CFP, Lysate / Concentration of CFP, Supernatant: HCT-116 cells, CFP 50 µg/ml alone or + 5-FU 8 µM
Protocol: (§1) This step was repeated three times and cell homogenate were vortexed at high-speed prior extraction. 40 µl from each supernatant and cell suspension were combined with 200 µl of internal standard working solution prepared in ice-cold methanol. Samples were then centrifuged and 100 µl of the supernatant were diluted with 400 µl water in glass vials prior analysis with LC-/MS/MS.

DLD-1 cells [2] = assay: Antibiotics' uptake by the cells, LC-MS/MS; settings: for Concentration of CFP, Lysate / Concentration of CFP, Supernatant: CFP 50 µg/ml alone or + 5-FU 16 µM
Protocol: as §1

HCT-116 cells [3] = assay: Cell cycle distribution, propidium iodide staining; format: cell-based, human; settings: CFT 100 µg/mL, CFP 50 µg/mL, 5-FU 8 µM, alone or combined, mean ± SE
Protocol: Propidium iodide (PI) staining was used to evaluate the effect of the different treatments on the cell cycle. […] Fixed cells, which were washed with PBS and incubated at 37 °C for 1 h with 50 µl RNase (1 mg/ml) (Sigma Aldrich, Germany), were stained for 15 minutes with PI (Molecular Probes, Eugene, Oregon, USA).

[4] = Stability in media, LC-MS/MS; format: physicochemical; settings: antibiotic alone (CFP 50 µg/mL, CFT 100 µg/mL)
Protocol: B) CFT (100 µg/ml) ± 5-FU (8 µM and 16 µM). P value (a) (between antibiotic alone and 5-FU (8 µM)); P value (b) (between antibiotic alone and 5-FU (16 µM)), n = 3.

DLD-1 cells [5] = assay: Cell cycle distribution, propidium iodide staining; format: cell-based, human; settings: CFT 100 µg/mL, CFP 50 µg/mL, 5-FU 16 µM, alone or combined, mean ± SE
Protocol: Propidium iodide (PI) staining was used to evaluate the effect of the different treatments on the cell cycle. […] 48 h and 72 h post-treatment, collected cells were fixed with ice-cold ethanol (70%) and stored at - 20 °C for at least 2 h. Fixed cells, which were washed with PBS and incubated at 37 °C for 1 h with 50 µl RNase (1 mg/ml) (Sigma Aldrich, Germany), were stained for 15 minutes with PI (Molecular Probes, Eugene, Oregon, USA). Cell cycle was monitored using BD FACSDiva™ and the percentage of cells in the different phases of the cell cycle (pre-Gi, G0/G1, S, and G2/M) phases was determined using BD FACSDiva™ Software.
Propidium iodide (PI) staining was used to evaluate the effect of the different treatments (Ceftazidime (100 µg/ml) or 5-Fluorouracil (16 µM)) on the cell cycle profile of DLD-1 cells. Briefly, DLD-1 cells were plated at 5^∗104/ml and treated for 48 h and 72 h. Collected cells were fixed with ice-cold ethanol (70%) and stored at -20°C for at least 2 h. Fixed cells, which were washed with PBS and incubated at 37°C for 1 h with 50 µl RNase (1 mg/ml) (Sigma Aldrich, Germany), were stained for 15 minutes with PI (Molecular Probes, Eugene, Oregon, USA). Cell cycle was monitored using BD FACSDiva™ and the percentage of cells in the different phases of the cell cycle (pre-Gi, G0/G1, S, and G2/M) phases was determined using BD FACSDiva™ Software.

HCT-116 cells [6] = assay: Caspase-3/7 activity assay; format: cell-based, human; settings: combined with 5-FU 8 µM, 48 and 72h, CFT 100 µg/ml, CFP 50 µg/ml
Protocol: Caspase-3/7 activity was measured 48 h and 72 h post-treatment according to the manufacturer's protocol (Caspase-Glo-3/7 Assay, Promega Corp, Madison, WI, USA). Briefly, equal volume from treated cells and caspase-3/7 mixture were incubated at room temperature for 3 h and the luminescence was measured by a microplate reader.

HCT-116 cells [7] = assay: MTT metabolic activity assay; format: cell-based, human; settings: for effect of combination with 5-FU on the inhibition of metabolic activity induced by 5-FU (in words): 5-FU 16 µM and 24 µM, MER, AMP, PIP 10, 50, 100 µg/mL, BenP, FLU 5, 25, 50 µg/mL

In the case of `CO/N=C(\C(=O)N[C@@H]1C(=O)N2C(C(=O)[O-])=C(C[N+]3(C)CCCC3)CS[C@H]12)c1csc(N)n1` [CFP, cefepime], the “Concentration of CFP, Lysate” value (HCT-116 cells [1]; 2 h) is reported as 0.018 ± 0.004, the “Concentration of CFP, Supernatant” value (HCT-116 cells [1]; 2 h) is reported as 44.1 and 44.100 ± 3.395 and the “Concentration of CFP, Lysate” value (HCT-116 cells [1]; 4 h) is reported as 0.022 ± 0.005. The “Concentration of CFP, Supernatant” value (HCT-116 cells [1]; 4 h) was 34.500 ± 3.818, the “Concentration of CFP, Lysate” value (HCT-116 cells [1]; 6 h) was 0.050 ± 0.003 and the “Concentration of CFP, Supernatant” value (HCT-116 cells [1]; 6 h) was 35.250 ± 1.485. The “Concentration of CFP, Lysate” value (HCT-116 cells [1]; 8 h) was 0.032 ± 0.002, the “Concentration of CFP, Supernatant” value (HCT-116 cells [1]; 8 h) was 35.9 and 35.850 ± 1.909 and the “average uptake in HCT-116 cells compared to DLD-1 cells” value (HCT-116 cells [1]; up to 8h) was 2 folds. The “Concentration of CFP, Lysate” value (DLD-1 cells [2]; 2 h) was 0.012 ± 0.005, the “Concentration of CFP, Supernatant” value (DLD-1 cells [2]; 2 h) was 50.000 ± 1.697 and the “Concentration of CFP, Lysate” value (DLD-1 cells [2]; 4 h) was 0.010 ± 0.0002. The “Concentration of CFP, Supernatant” value (DLD-1 cells [2]; 4 h) was 54.187 ± 0.849, the “Concentration of CFP, Lysate” value (DLD-1 cells [2]; 6 h) was 0.014 ± 0.0001 and the “Concentration of CFP, Supernatant” value (DLD-1 cells [2]; 6 h) was 45.813 ± 3.818. The “Concentration of CFP, Lysate” value (DLD-1 cells [2]; 8 h) was 0.012 ± 0.001, the “Concentration of CFP, Supernatant” value (DLD-1 cells [2]; 8 h) was 47.947 ± 12.644 and the “average uptake by the cells” value (DLD-1 cells [2]; up to 8h) was “around 0.02%”. The “percentage of cells in G0/G1” value (HCT-116 cells [3]; 48 h) was 51.7 ± 2.8%, the “percentage of cells in G2/M” value (HCT-116 cells [3]; 48 h) was 24.6 ± 0.9% and the “percentage of cells in Pre G1” value (HCT-116 cells [3]; 48 h) was 4.9 ± 1.6%. For the same compound, the “percentage of cells in S” value (HCT-116 cells [3]; 48 h) was 13.6 ± 1.6%, the “percentage of cells in G0/G1” value (HCT-116 cells [3]; 72 h) was 53.8 ± 3.6^(a) % and the “percentage of cells in G2/M” value (HCT-116 cells [3]; 72 h) was 23.6 ± 2.2^(a) %. For the same compound, the “percentage of cells in Pre G1” value (HCT-116 cells [3]; 72 h) was 9.8% and 9.3 ± 2.9^(a) %, the “percentage of cells in S” value (HCT-116 cells [3]; 72 h) was 7.4 ± 1.4% and the “Stability test, level in media” value ([4]; 2h in media) was 49.9 ± 9.5. For the same compound, the “Stability test, level in media” value ([4]; 8h in media) was 48.8 ± 5.3, the “percentage of cells in G0/G1” value (DLD-1 cells [5]; 48 h) was 48.8 ± 4.0% and the “percentage of cells in G2/M” value (DLD-1 cells [5]; 48 h) was 18.4 ± 4.3%. The “percentage of cells in Pre G1” value (DLD-1 cells [5]; 48 h) was 2.6 ± 0.3%, the “percentage of cells in S” value (DLD-1 cells [5]; 48 h) was 29.2 ± 8.1% and the “percentage of cells in G0/G1” value (DLD-1 cells [5]; 72 h) was 59.6 ± 3.6^(a) %. The “percentage of cells in G2/M” value (DLD-1 cells [5]; 72 h) was 17.0 ± 3.5%, the “percentage of cells in Pre G1” value (DLD-1 cells [5]; 72 h) was 9.5 ± 4.1^(a) % and the “percentage of cells in S” value (DLD-1 cells [5]; 72 h) was 13.1 ± 3.3^(a) %. The “effect on 5-FU-induced apoptosis (caspase 3/7, in words)” value (HCT-116 cells [6]) was “effect was seen only 72h post-treatment” and the “effect on 5-FU's effect on metabolic activity (in words)” value (HCT-116 cells [7]; 48 h post-treatment, CFT 100 µg/mL, CFP 50 µg/mL combined with 5-FU) was “antagonized 5-FU's effect”.

With `Cc1onc(-c2c(F)cccc2Cl)c1C(=O)N[C@@H]1C(=O)N2[C@@H]1SC(C)(C)[C@@H]2C(=O)O` [FLU, flucloxacillin] the “effect of combination with 5-FU on the inhibition of metabolic activity induced by 5-FU (in words)” value (HCT-116 cells [7]) was “does not affect the inhibition”.

With `C[C@@H](O)[C@H]1C(=O)N2C(C(=O)O)=C(S[C@@H]3CN[C@H](C(=O)N(C)C)C3)[C@H](C)[C@H]12` [MER, meropenem] the “effect of combination with 5-FU on the inhibition of metabolic activity induced by 5-FU (in words)” value (HCT-116 cells [7]) was “does not affect the inhibition”.

For `CCN1CCN(C(=O)N[C@@H](C(=O)N[C@@H]2C(=O)N3[C@@H]2SC(C)(C)[C@@H]3C(=O)O)c2ccccc2)C(=O)C1=O` [PIP, piperacillin], the “effect of combination with 5-FU on the inhibition of metabolic activity induced by 5-FU (in words)” value (HCT-116 cells [7]) was “does not affect the inhibition”.
